From ChEMBL document CHEMBL3627616, “New multifunctional melatonin-derived benzylpyridinium bromides with potent cholinergic, antioxidant, and neuroprotective properties as innovative drugs for Alzheimer's disease” (Eur J Med Chem, 2015) come the findings set out here.

Data set [1] deals with T1, Acetylcholinesterase (Homo sapiens, UniProt P22303). The experiment in a line: Inhibition of human recombinant AChE using acetylthiocholine iodide as substrate preincubated for 5 mins followed by substrate addition by Ellman's method.
The next data set is filed under the species Homo sapiens. Nature of the data set: Selectivity ratio of IC50 for human serum BuChE to IC50 for human recombinant AChE.
Data set [2] is described as follows: Antioxidant activity assessed as trolox equivalent of AAPH radical scavenging activity preincubated for 15 mins followed by addition of AAPH solution measured for 80 mins by ORAC-FL method. Format: physicochemical.
Another data set deals with Cholinesterase (Homo sapiens, UniProt P06276).
Data set [3] has as its system SH-SY5Y. The experiment in a line: Neuroprotective activity against H2O2-induced oxidative stress-associated death in human SH-SY5Y cells assessed as increase in cell viability at 10 uM incubated for 24 hrs prior to H2O2 challenge measured after 24 hrs by MTT assay. Format: functional, cell-based.
Data set [4] in a line: Antioxidant activity assessed as trolox equivalent of AAPH radical scavenging activity. Format: physicochemical.
Data set [5] relates to SH-SY5Y. The experiment in a line: Cytotoxicity against human SH-SY5Y cells assessed as cell survival at 1 to 50 uM after 24 hrs by MTT assay. Format: cell-based.
Data set [6] deals with SH-SY5Y. The experiment in a line: Neuroprotective activity against H2O2-induced oxidative stress-associated death in human SH-SY5Y cells assessed as increase in cell viability at 1 to 10 uM incubated for 24 hrs prior to H2O2 challenge measured after 24 hrs by MTT assay. It counts as functional, cell-based.
For data set [7], the target named is T1, Acetylcholinesterase. To be noted: 0.05 to 0.2 uM.
Data set [8] concerns the target T1, Acetylcholinesterase. The experiment in a line: Potency index, ratio of IC50 for donepezil to IC50 for test compound for inhibition of human recombinant AChE.

Activity calls are given as the source filed them. The rule behind the calls is not given here.

Cholinesterase, sequence (P06276 whole entry): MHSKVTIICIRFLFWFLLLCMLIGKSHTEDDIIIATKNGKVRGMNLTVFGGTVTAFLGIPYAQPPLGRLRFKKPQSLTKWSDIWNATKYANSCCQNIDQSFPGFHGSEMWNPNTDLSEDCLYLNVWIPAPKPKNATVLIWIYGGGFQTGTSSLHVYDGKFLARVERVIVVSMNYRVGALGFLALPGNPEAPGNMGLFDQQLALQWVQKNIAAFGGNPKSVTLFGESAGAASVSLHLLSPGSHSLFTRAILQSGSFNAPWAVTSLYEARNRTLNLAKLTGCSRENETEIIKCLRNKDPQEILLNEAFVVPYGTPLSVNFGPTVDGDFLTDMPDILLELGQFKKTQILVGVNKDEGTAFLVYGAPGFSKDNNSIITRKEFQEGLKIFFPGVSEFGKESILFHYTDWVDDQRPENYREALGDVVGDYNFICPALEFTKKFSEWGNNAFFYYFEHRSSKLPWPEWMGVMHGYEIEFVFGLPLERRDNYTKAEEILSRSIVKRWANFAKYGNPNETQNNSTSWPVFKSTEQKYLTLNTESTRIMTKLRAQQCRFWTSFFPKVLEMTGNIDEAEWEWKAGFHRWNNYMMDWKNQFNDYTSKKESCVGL
T1 sequence (P22303 whole entry): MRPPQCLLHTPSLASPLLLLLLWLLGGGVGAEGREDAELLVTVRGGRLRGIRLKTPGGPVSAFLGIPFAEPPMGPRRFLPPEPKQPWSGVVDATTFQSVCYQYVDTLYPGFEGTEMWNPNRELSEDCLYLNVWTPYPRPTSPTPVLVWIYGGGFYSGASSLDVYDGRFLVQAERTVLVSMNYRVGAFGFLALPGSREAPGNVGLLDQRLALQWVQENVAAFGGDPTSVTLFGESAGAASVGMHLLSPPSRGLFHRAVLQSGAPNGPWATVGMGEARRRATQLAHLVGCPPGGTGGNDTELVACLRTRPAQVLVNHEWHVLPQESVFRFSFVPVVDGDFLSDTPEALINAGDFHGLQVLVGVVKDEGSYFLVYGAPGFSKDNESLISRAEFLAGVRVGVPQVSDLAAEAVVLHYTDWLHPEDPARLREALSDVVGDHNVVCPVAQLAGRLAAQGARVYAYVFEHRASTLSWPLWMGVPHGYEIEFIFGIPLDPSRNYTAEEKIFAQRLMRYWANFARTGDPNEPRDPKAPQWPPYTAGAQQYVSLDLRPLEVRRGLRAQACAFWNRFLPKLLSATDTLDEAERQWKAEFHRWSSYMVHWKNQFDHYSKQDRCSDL

Consider `O=C(NCCc1c[nH]c2ccccc12)c1cc[n+](Cc2ccccc2)cc1.[Br-]`, for which the IC50 on Acetylcholinesterase [1] is 4.2 µM; at Cholinesterase, 2.8 µM. Also, the Ratio IC50 in the data set listed under Homo sapiens is 0.67. Moreover, in data set [2], the Activity is reported as 1.29 umolequiv/umol.
Turning to `COc1ccc2[nH]cc(CCNC(=O)CCc3cc[n+](Cc4ccccc4F)cc3)c2c1.[Br-]`, the IC50 amounted to 0.53 µM on Acetylcholinesterase [1] and 0.86 µM at Cholinesterase. Further, the Ratio IC50 in the data set listed under Homo sapiens is 1.6. In data set [2], the Activity worked out at 2.51 umolequiv/umol.
As for `COc1ccc2[nH]cc(CCNC(=O)c3cc[n+](Cc4ccccc4F)cc3)c2c1.[Br-]`, the values for the IC50 on Acetylcholinesterase [1] and at Cholinesterase were 3.3 µM and 6.8 µM, respectively. Also, the Ratio IC50 in the data set filed under Homo sapiens worked out at 2.1. Besides, the Activity in data set [2] is on record as 2.02 umolequiv/umol.
With `COc1ccc2[nH]cc(CCNC(=O)CCc3cc[n+](Cc4ccc(F)cc4)cc3)c2c1.[Br-]`, the values for the 50% inhibitory concentration (IC50) at Acetylcholinesterase [1] and against Cholinesterase were 0.58 µM and 0.65 µM, respectively. Further, in the data set filed under Homo sapiens, the Ratio IC50 stood at 1.1. Further, the Activity in data set [2] is 2.49 umolequiv/umol.
On to `COc1ccc2[nH]cc(CCNC(C)=O)c2c1` [MELATONIN], for which the figures for the Activity in data set [2] and in data set [4] were 2.34 umolequiv/umol and 2 umolequiv/umol, respectively. Besides, in the data set on SH-SY5Y [3], the outcome was Active.
With `N#Cc1ccc(C[n+]2ccc(C(=O)NCCc3c[nH]c4ccccc34)cc2)cc1.[Br-]`, the IC50 on Acetylcholinesterase [1] came out at 22.9 µM. Also, in the data set filed under Homo sapiens, the Ratio IC50 was more than 4.4. Besides, in [2], the Activity is given as 1.56 umolequiv/umol.
For `O=C(NCCc1c[nH]c2ccccc12)c1ccc[n+](Cc2ccccc2F)c1.[Br-]`, the IC50 on Acetylcholinesterase [1] came out at 28.6 µM; on Cholinesterase, 0.34 µM. Moreover, in the data set listed under Homo sapiens, the Ratio IC50 is 0.01. The Activity in data set [2] was 1.47 umolequiv/umol.
Regarding `COc1ccc2[nH]cc(CCNC(=O)/C=C/c3cc[n+](Cc4ccccc4F)cc3)c2c1.[Br-]`, the IC50 was 0.26 µM at Acetylcholinesterase [1] and 2.3 µM at Cholinesterase. In the data set filed under Homo sapiens, the Ratio IC50 stood at 8.8. Moreover, the Activity in [2] was found to be 3.66 umolequiv/umol.
For `O=C(NCCc1c[nH]c2ccccc12)c1cc[n+](Cc2ccccc2F)cc1.[Br-]`, the IC50 at Acetylcholinesterase [1] amounted to 3.2 µM; against Cholinesterase, 4.1 µM. Besides, the Ratio IC50 in the data set filed under Homo sapiens came to 1.3. Besides, in [2], the Activity was 1.14 umolequiv/umol.
As for `COc1ccc2[nH]cc(CCNC(=O)/C=C/c3cc[n+](Cc4cccc(F)c4)cc3)c2c1.[Br-]`, the IC50 amounted to 0.11 µM at Acetylcholinesterase [1] and 1.1 µM against Cholinesterase. For the same compound, the Ratio IC50 in the data set filed under Homo sapiens worked out at 10. Besides, the Activity in data set [2] is listed as 3.41 umolequiv/umol; with SH-SY5Y [5], “Non-toxic”. For the same compound, in the data set on SH-SY5Y [6], the outcome was Active. The inhibition entry on Acetylcholinesterase [7] was “Active”.
Take `O=C(NCCc1c[nH]c2ccccc12)c1cc[n+](Cc2cccc(F)c2)cc1.[Br-]`: the IC50 on Acetylcholinesterase [1] was found to be 3.9 µM; at Cholinesterase, 5.1 µM. Also, the Ratio IC50 in the data set filed under Homo sapiens came out at 1.3. Also, in data set [2], the Activity is reported as 1.41 umolequiv/umol.
In the case of `COc1ccc2[nH]cc(CCNC(=O)/C=C/c3cc[n+](Cc4ccc(F)cc4)cc3)c2c1.[Br-]`, the IC50 on Acetylcholinesterase [1] is 0.21 µM; on Cholinesterase it was 0.71 µM. Further, the Ratio IC50 in the data set filed under Homo sapiens came out at 3.4. In addition, the Activity in data set [2] worked out at 3.51 umolequiv/umol.
Taken in the same sequence, the figures for `O=C(NCCc1c[nH]c2ccccc12)c1ccc[n+](Cc2ccccc2)c1.[Br-]` were 30.5 µM, 0.28 µM, 0.009 and 1.49 umolequiv/umol.
Taken in the same sequence, the figures for `Cc1ccc(C[n+]2ccc(C(=O)NCCc3c[nH]c4ccccc34)cc2)cc1.[Br-]` were 5.7 µM, 8.9 µM, 1.6 and 1.72 umolequiv/umol.
Regarding `Cc1cccc(C[n+]2ccc(C(=O)NCCc3c[nH]c4ccccc34)cc2)c1.[Br-]`, the IC50 on Acetylcholinesterase [1] was found to be 2.7 µM; against Cholinesterase it was 5.8 µM. Also, the Ratio IC50 in the data set filed under Homo sapiens was 2.1. The Activity in data set [2] was determined as 1.36 umolequiv/umol.
Taken in the same sequence, the figures for `COc1ccc2[nH]cc(CCNC(=O)CCc3cc[n+](Cc4cccc(F)c4)cc3)c2c1.[Br-]` were 0.44 µM, 0.72 µM, 1.6 and 2.45 umolequiv/umol.
Taken in the same sequence, the figures for `COc1ccc2[nH]cc(CCNC(=O)c3cc[n+](Cc4cccc(F)c4)cc3)c2c1.[Br-]` were 3.8 µM, 7.9 µM, 2.1 and 1.87 umolequiv/umol.
The like results for `O=C(NCCc1c[nH]c2ccccc12)c1cc[n+](Cc2ccc(F)cc2)cc1.[Br-]` were, in that order, 3.4 µM, 4.8 µM, 1.4 and 1.32 umolequiv/umol.
For `COc1ccc2[nH]cc(CCNC(=O)c3cc[n+](Cc4ccc(F)cc4)cc3)c2c1.[Br-]`, the IC50 turned out to be 5.1 µM at Acetylcholinesterase [1] and 7.5 µM against Cholinesterase. In addition, the Ratio IC50 in the data set filed under Homo sapiens was found to be 1.5. The Activity in data set [2] was 2.09 umolequiv/umol.
`COc1ccc2[nH]cc(CCNC(=O)c3cc[n+](Cc4ccc(OC(=O)N(C)C)cc4)cc3)c2c1.[Br-]`: the half-inhibitory concentration (IC50) on Acetylcholinesterase [1] came to 1.3 µM; against Cholinesterase, 0.08 µM. The Ratio IC50 turned out to be 0.06 in the data set filed under Homo sapiens and 70 on Acetylcholinesterase [8]. Moreover, the Activity was 2.04 umolequiv/umol in data set [2] and “Non-toxic” in the data set on SH-SY5Y [5]. The outcome with SH-SY5Y [6] was Active.
